Results on 30 compounds are retold here after ChEMBL document CHEMBL5257018, “Novel Strategies for the Treatment of Pseudomonas aeruginosa Infections” (J Med Chem, 2016).

Values after ≈ are worked out from the molar mass of the structure shown. Numbered stars: 1 amine (or outer) side, 2 acyl side, 3 side chain; on linkers, the order of the positions; unused ones are H or OH. Bridge positions count the residues as written; N and C are the ends. Square brackets hold non-standard residues; d marks the D form. Side chains are listed from the residue outwards. Peptide text beside a SMILES is read from it. I, II: the chains in the order shown. X2 = COc1cccc2[nH]c(C)c(C[C@H](N[*:1])C(=O)[*:2])c12; dAla(ψthiazole) = C[C@@H](N[*:1])c1nc(C(=O)[*:2])cs1; Trp(4-OMe) = COc1cccc2[nH]cc(C[C@H](N)C(=O)O)c12; X3 = O=C(c1csc([C@@H](CO)N[*:1])n1)[*:2]; GlyΨ(Thz) = O=C(c1csc(CN[*:1])n1)[*:2]; dDab = NCC[C@@H](N)C(=O)O; Orn = NCCC[C@H](N)C(=O)O; dAbu = CC[C@@H](N)C(=O)O; Dab = NCC[C@H](N)C(=O)O; Dha = C=C(N)C(=O)O; Sar = CNCC(=O)O

Tested on in one assay: not listed separately
Description: Antagonist activity at Pseudomonas aeruginosa MvfR.
In turn, `O=C(CSc1nc2cc([N+](=O)[O-])ccc2[nH]1)Nc1ccc(Oc2ccccc2)cc1` showed an IC50 of 300 nM.
`CC(C)(C)c1ccc(C(=O)NO)cc1` gave an IC50 of 87 nM.
In turn, `Nc1nnc(-c2cccc(C(F)(F)F)c2)o1` yielded a half-inhibitory concentration (IC50) of 250 nM.
Same read-out and setting: the same measure for `CCCCCCCCCc1nc2cc(Cl)ccc2c(=O)n1N`: 50 nM.

The subject of a further assay is Pseudomonas aeruginosa. Description: Antimicrobial activity against Pseudomonas aeruginosa assessed as reduction in bacterial growth. In kind it is functional, organism-based.
Take `C=C1NC(=O)[C@@H](C)NC(=O)CNC(=O)[C@H](Cc2c[nH]c3cccc(OC)c23)NC(=O)[C@H](Cc2c[nH]c3ccccc23)NC(=O)c2csc(n2)[C@@H](CO)NC(=O)CN(C)C1=O` (cyclo([Dha][Sar][X3]W[Trp(4-OMe)]G[dA])): the IC50 worked out at 5 µg/mL (≈ 5.95 µM).
With `CC(C)[C@H](NC(=O)[C@H](Cc1c[nH]c2ccccc12)NC(=O)[C@H](CCCNC(=N)N)NC(=O)[C@H](CCCNC(=N)N)NC(=O)[C@@H](NC(=O)[C@@H](NC(=O)[C@H](CCCNC(=N)N)NC(=O)[C@@H](NC(=O)[C@@H](NC(=O)[C@H](CCCNC(=N)N)NC(=O)[C@H](CCCNC(=N)N)NC(=O)[C@@H](NC(=O)[C@H](Cc1c[nH]c2ccccc12)NC(=O)[C@H](CCCNC(=N)N)NC(=O)[C@H](CCCNC(=N)N)NC(=O)[C@@H](NC(=O)[C@H](CCCNC(=N)N)NC(=O)[C@H](CCCNC(=N)N)NC(=O)[C@@H](NC(=O)[C@H](Cc1c[nH]c2ccccc12)NC(=O)[C@H](CCCNC(=N)N)NC(=O)[C@@H](N)CCCNC(=N)N)C(C)C)C(C)C)C(C)C)C(C)C)C(C)C)C(C)C)C(C)C)C(=O)N[C@@H](CCCNC(=N)N)C(=O)N[C@@H](CCCNC(=N)N)C(=O)O` (H-RRWVRRVRRWVRRVVRVVRRWVRR-OH), the MIC turned out to be 0.4 µM.
Take `CCCCCCCCCCCCCB(O)O`: the MIC amounted to 1 µM.
In the case of `C=C1NC(=O)[C@@H](CC)NC(=O)CNC(=O)[C@H](Cc2c(C)[nH]c3cccc(OC)c23)NC(=O)[C@H](Cc2c[nH]c3ccccc23)NC(=O)c2csc(n2)[C@@H](C)NC(=O)CN(C)C1=O` (cyclo(W[X2]G[dAbu][Dha][Sar][dAla(ψthiazole)])), the IC50 was determined as 0.14 µg/mL (≈ 0.164 µM).
On to `Cc1ccc2c(C)c3c(c(O)c2c1O)C(=O)[C@]1(O)C(=O)C(C(N)=O)=C(O)[C@H](N)[C@@H]1C3`, for which the MIC was 32 µg/mL.
Turning to `C=C1NC(=O)[C@@H](C)NC(=O)CNC(=O)[C@H](Cc2c(C)[nH]c3cccc(OC)c23)NC(=O)[C@H](Cc2c[nH]c3ccccc23)NC(=O)c2csc(n2)[C@@H](C)NC(=O)CN(C)C1=O` (cyclo(W[X2]G[dA][Dha][Sar][dAla(ψthiazole)])), the IC50 worked out at 0.1 µg/mL (≈ 0.119 µM).
`CN(C)c1cc(NC(=O)CNC(C)(C)C)c(O)c2c1C[C@H]1C[C@H]3[C@H](N(C)C)C(O)=C(C(N)=O)C(=O)[C@@]3(O)C(O)=C1C2=O` [TIGECYCLINE]: the MIC90 was found to be 16 µg/mL (≈ 27.3 µM).
`CC[C@H](C)[C@@H]1NC(=O)[C@H](Cc2c[nH]c3ccccc23)NC(=O)[C@H]([C@@H](C)O)NC(=O)[C@@H]2CCCN2C(=O)[C@H]2CCCN2C(=O)[C@H](CO)NC(=O)[C@H](C)NC(=O)[C@H](CCN)NC(=O)[C@H](CCN)NC(=O)[C@H](Cc2c[nH]c3ccccc23)NC(=O)[C@H](CCN)NC(=O)[C@@H](CCN)NC(=O)[C@H](CCCN)NC(=O)[C@H](CCN)NC1=O` [MUREPAVADIN] (cyclo(TWI[Dab][Orn][dDab][Dab]W[Dab][Dab]AS[dP]P)): the MIC50 came to 10 µg/mL (≈ 6.44 µM).
As for `C=C1NC(=O)[C@@H](CC)NC(=O)CNC(=O)[C@H](Cc2c[nH]c3cccc(OC)c23)NC(=O)[C@H](Cc2c[nH]c3ccccc23)NC(=O)c2csc(n2)[C@@H](C)NC(=O)CN(C)C1=O` (cyclo([Dha][Sar][dAla(ψthiazole)]W[Trp(4-OMe)]G[dAbu])), the IC50 was determined as 0.08 µg/mL (≈ 0.0954 µM).
Regarding `C=C1NC(=O)[C@@H](C)NC(=O)CNC(=O)[C@H](Cc2c[nH]c3ccccc23)NC(=O)[C@H](Cc2c[nH]c3ccccc23)NC(=O)c2csc(n2)[C@@H](C)NC(=O)CN(C)C1=O`, the IC50 turned out to be 1.4 µg/mL (≈ 1.76 µM).
On to `CC[C@H](C)[C@H](NC(=O)[C@H](CCCNC(=N)N)NC(=O)[C@H](CCCNC(=N)N)NC(=O)[C@H](Cc1ccccc1)NC(=O)[C@H](CC(C)C)NC(=O)[C@H](CCCNC(=N)N)NC(=O)[C@@H](N)CCCNC(=N)N)C(=O)N[C@@H](CC(C)C)C(=O)N[C@@H](CCCNC(=N)N)C(=O)N[C@@H](Cc1ccc(O)cc1)C(=O)N[C@@H](CC(C)C)C(=O)O` (H-RRLFRRILRYL-OH), for which the MIC is 2.5 µM.
Regarding `C=C1NC(=O)[C@@H](CC)NC(=O)CNC(=O)[C@H](Cc2c[nH]c3cccc(OC)c23)NC(=O)[C@H](Cc2c[nH]c3ccccc23)NC(=O)c2csc(n2)[C@@H](CO)NC(=O)CN(C)C1=O` (cyclo([Dha][Sar][X3]W[Trp(4-OMe)]G[dAbu])), the IC50 is 4 µg/mL (≈ 4.68 µM).
Consider `COc1c(NC(=O)c2ccc(NC(=O)c3ccc(NC(=O)[C@H](CC#N)NC(=O)c4ccc(NC(=O)/C(C)=C/c5ccc(O)cc5)cc4)cc3)c(OC)c2O)ccc(C(=O)O)c1O`, for which the minimal inhibitory concentration (MIC) is 1 µg/mL.
`C=C1NC(=O)[C@@H](C)NC(=O)CNC(=O)[C@H](Cc2c[nH]c3cccc(OC)c23)NC(=O)[C@H](Cc2c[nH]c3ccccc23)NC(=O)c2csc(n2)[C@@H](C)NC(=O)CN(C)C1=O` (cyclo(W[Trp(4-OMe)]G[dA][Dha][Sar][dAla(ψthiazole)])): the IC50 worked out at 0.12 µg/mL (≈ 0.145 µM).
As for `C[C@@H](N)C(=O)N[C@H](CCCCN)C(=O)N[C@H](CCCNC(=N)N)C(=O)N[C@H](Cc1c[nH]cn1)C(=O)N[C@H](Cc1c[nH]cn1)C(=O)NCC(=O)N[C@H](Cc1ccc(O)cc1)C(=O)N[C@H](CCCCN)C(=O)N[C@H](CCCNC(=N)N)C(=O)N[C@H](CCCCN)C(=O)N[C@H](Cc1ccccc1)C(=O)N[C@H](Cc1c[nH]cn1)C(N)=O` (H-[dA][dK][dR][dH][dH]G[dY][dK][dR][dK][dF][dH]-NH2), the minimum inhibitory concentration (MIC) is 2 µM.
As for `CC(C)C[C@H](NC(=O)[C@H](CCCCN)NC(=O)[C@H](CCCCNC(=O)[C@H](CC(C)C)NC(=O)[C@H](CCCCN)NC(=O)[C@H](CCCCNC(=O)[C@H](CC(C)C)NC(=O)[C@H](CCCCN)NC(=O)[C@H](CCCCNC(=O)[C@H](CC(C)C)NC(=O)[C@@H](N)CCCCN)NC(=O)[C@H](CC(C)C)NC(=O)[C@@H](N)CCCCN)NC(=O)[C@H](CC(C)C)NC(=O)[C@H](CCCCN)NC(=O)[C@H](CCCCNC(=O)[C@H](CC(C)C)NC(=O)[C@@H](N)CCCCN)NC(=O)[C@H](CC(C)C)NC(=O)[C@@H](N)CCCCN)NC(=O)[C@H](CC(C)C)NC(=O)[C@H](CCCCN)NC(=O)[C@H](CCCCNC(=O)[C@H](CC(C)C)NC(=O)[C@H](CCCCN)NC(=O)[C@H](CCCCNC(=O)[C@H](CC(C)C)NC(=O)[C@@H](N)CCCCN)NC(=O)[C@H](CC(C)C)NC(=O)[C@@H](N)CCCCN)NC(=O)[C@H](CC(C)C)NC(=O)[C@H](CCCCN)NC(=O)[C@H](CCCCNC(=O)[C@H](CC(C)C)NC(=O)[C@@H](N)CCCCN)NC(=O)[C@H](CC(C)C)NC(=O)[C@@H](N)CCCCN)C(N)=O` (I: H-KLK([Leu-Lys])KLKKLKKL-NH2 / II: H-KLK([Leu-Lys])KLKKL / III: H-KLK([Leu-Lys])KL / IV: H-KLK([Leu-Lys])KL; amide I:6-IV:C, I:9-II:C, II:6-III:C), the minimal inhibitory concentration (MIC) came out at 0.4 µM.
With `C=C1NC(=O)[C@@H](C)NC(=O)CNC(=O)[C@H](Cc2c[nH]c3cccc(OC)c23)NC(=O)[C@H](Cc2c[nH]c3ccccc23)NC(=O)c2csc(n2)CNC(=O)CN(C)C1=O` (cyclo([Dha][Sar][GlyΨ(Thz)]W[Trp(4-OMe)]G[dA])), the IC50 amounted to 0.8 µg/mL (≈ 0.987 µM).

The target in another assay is Elastase (Pseudomonas aeruginosa (strain ATCC 15692 / PAO1 / 1C / PRS 101 / LMG12228), UniProt P14756). Description: Inhibition of Pseudomonas aeruginosa LasB elastase using aminobenzoyl-Ala-Gly-Leu-Ala-p-nitro-benzyl-amide as substrate b microtiter-based fluorimetric assay.
Sequence of Elastase (P14756 whole entry): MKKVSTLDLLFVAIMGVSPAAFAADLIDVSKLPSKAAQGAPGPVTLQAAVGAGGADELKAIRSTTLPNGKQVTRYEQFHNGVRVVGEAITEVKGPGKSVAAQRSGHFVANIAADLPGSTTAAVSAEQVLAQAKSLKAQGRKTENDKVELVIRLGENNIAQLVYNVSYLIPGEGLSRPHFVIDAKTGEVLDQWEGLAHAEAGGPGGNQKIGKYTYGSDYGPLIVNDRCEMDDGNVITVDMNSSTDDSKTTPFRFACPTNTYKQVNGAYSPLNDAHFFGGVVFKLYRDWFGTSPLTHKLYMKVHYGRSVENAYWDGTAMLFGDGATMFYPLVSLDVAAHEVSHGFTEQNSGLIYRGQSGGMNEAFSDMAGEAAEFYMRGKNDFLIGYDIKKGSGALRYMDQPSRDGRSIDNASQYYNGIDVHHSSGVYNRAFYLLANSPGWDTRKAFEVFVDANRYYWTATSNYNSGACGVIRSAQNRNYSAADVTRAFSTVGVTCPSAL
Consider `CC(=O)SCC(=O)Nc1cc(C)c(Br)cc1Cl`, for which the 50% inhibitory concentration (IC50) was 6000 nM.

For a further assay, the target named is T1, PA-I galactophilic lectin (Pseudomonas aeruginosa (strain ATCC 15692 / PAO1 / 1C / PRS 101 / LMG12228), UniProt Q05097).
T1 sequence (Q05097 whole entry): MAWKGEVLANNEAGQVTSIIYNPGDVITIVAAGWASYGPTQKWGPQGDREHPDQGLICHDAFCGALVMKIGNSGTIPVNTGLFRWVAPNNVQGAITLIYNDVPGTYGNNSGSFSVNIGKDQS
Description: Binding affinity to Pseudomonas aeruginosa PAO1 LecA assessed as dissociation constant.
As to `CC(=O)N[C@H]1C(O)O[C@H](CO)[C@@H](O[C@@H]2O[C@@H](C)[C@@H](O)[C@@H](O)[C@@H]2O)[C@@H]1O[C@@H]1O[C@H](CO)[C@H](O)[C@H](O)[C@H]1O` (stereo not given in full), the Kd is 212 nM.
Still for that read-out and setting: for `CC[C@H](C)[C@H](NC(=O)[C@H](Cc1cnc[nH]1)NCCCC[C@H](NC(=O)[C@@H](NC(=O)[C@H](CCCCN)NC(=O)[C@H](Cc1ccccc1)NC(=O)[C@H](CCCCNC(=O)[C@H](CC(C)C)NC(=O)[C@@H]1CCCN1C(=O)[C@@H](N)CCCCNC(=O)C[C@@H]1O[C@@H](C)[C@@H](O)[C@@H](O)[C@@H]1O)NC(=O)[C@H](CC(C)C)NC(=O)[C@@H]1CCCN1C(=O)[C@@H](N)CCCCNC(=O)C[C@@H]1O[C@@H](C)[C@@H](O)[C@@H](O)[C@@H]1O)[C@@H](C)CC)C(=O)N[C@H](C(=O)N[C@@H](CCCCN)C(=O)N[C@@H](Cc1ccccc1)C(=O)N[C@@H](CCCCN[C@@H](CC(C)C)C(=O)N1CCC[C@H]1C(=O)N[C@@H](CCCCNC(=O)C[C@@H]1O[C@@H](C)[C@@H](C)[C@@H](C)[C@@H]1O)C(=O)O)C(=O)N[C@@H](CC(C)C)C(=O)N1CCC[C@H]1C(=O)N[C@@H](CCCCNC(=O)C[C@@H]1O[C@@H](C)[C@@H](O)[C@@H](O)[C@@H]1O)C(=O)O)[C@@H](C)CC)C(N)=O` the value was 140 nM; for `CO[C@H]1O[C@H]([C@@H](O)CNS(=O)(=O)c2c(C)cc(C)cc2C)[C@@H](O)[C@H](O)[C@@H]1O`, 100 nM.
On the same count and under the same terms, the same measure for `COC(=O)c1cn([C@@H]2O[C@H](CO)[C@@H](O[C@@H]3O[C@@H](C)[C@@H](O)[C@@H](O)[C@@H]3O)[C@H](O)[C@H]2NC(C)=O)nn1`: 290 nM; for `C[C@@H]1O[C@H](CO)[C@@H](O)[C@H](O)[C@@H]1O`: 16000 nM; for `C[C@@H]1O[C@H](C)[C@@H](O)[C@H](O)[C@@H]1O`: 17000 nM.
`OC[C@H]1O[C@@H](Sc2ccc3ccccc3c2)[C@H](O)[C@@H](O)[C@H]1O`: the Kd stood at 6300 nM.
As for `N=C(N)NCCC[C@H](NC(=O)COCCOCCNC(=O)[C@H](CCCCNC(=O)[C@@H]1C[C@H](NC(=O)[C@H](Cc2cn(CCNC(=O)c3ccc(S[C@@H]4O[C@H](CO)[C@H](O)[C@H](O)[C@H]4O)cc3)nn2)NC(=O)COc2ccccc2)CN1)NC(=O)[C@@H]1C[C@H](NC(=O)[C@H](Cc2cn(CCNC(=O)c3ccc(S[C@@H]4O[C@H](CO)[C@H](O)[C@H](O)[C@H]4O)cc3)nn2)NC(=O)COc2ccccc2)CN1)C(N)=O`, the Kd turned out to be 82 nM.
